{"source": "ChEMBL document CHEMBL5724914", "about": "“Linking interpersonal differences in gut microbiota composition and drug biotransformation activity” (2024); note: call rule not given here", "key": {"[1]": {"assay": "(§1) The drug is tested on Z-028 corresponding to mouse gut metagenome with ENA study accession number: PRJEB37062 and ENA sample accession number: ERS12561827 for biotransformation under anaerobic condition. The drug concentrations were measured over 9 timepoints collected between 0 and 24 hours of incubation by liquid-chromatography-coupled mass spectrometry (LC–MS)", "conditions": "2 µM"}, "[2]": {"conditions": "human gut metagenome, 24 h, 2 µM"}, "[3]": {"assay": "as §1, with “Z-025” for “Z-028”, “rabbit” for “mouse”, “ERS12561824” for “ERS12561827”", "conditions": "2 µM"}, "[4]": {"assay": "as §1, with “Z-024” for “Z-028”, “pig” for “mouse”, “ERS12561823” for “ERS12561827”", "conditions": "2 µM"}, "[5]": {"assay": "as §1, with “Z-005” for “Z-028”, “to” for “to mouse gut”, “ERS12561805” for “ERS12561827”", "conditions": "2 µM"}, "[6]": {"assay": "as §1, with “Z-026” for “Z-028”, “to” for “to mouse gut”, “ERS12561825” for “ERS12561827”", "conditions": "2 µM"}, "[7]": {"assay": "as §1, with “Z-019” for “Z-028”, “rat” for “mouse”, “ERS12561818” for “ERS12561827”", "conditions": "2 µM"}, "[8]": {"assay": "as §1, with “Z-020” for “Z-028”, “rabbit” for “mouse”, “ERS12561819” for “ERS12561827”", "conditions": "2 µM"}, "[9]": {"assay": "as §1, with “Z-003” for “Z-028”, “pig” for “mouse”, “ERS12561803” for “ERS12561827”", "conditions": "2 µM"}, "[10]": {"conditions": "human gut metagenome, 24 h, 2 µM", "remark": "listed apart in the source"}, "[11]": {"conditions": "human gut metagenome, 24 h, 2 µM", "remark": "listed apart in the source"}, "[12]": {"assay": "as §1, with “Z-022” for “Z-028”, “ERS12561821” for “ERS12561827”", "conditions": "2 µM"}, "[13]": {"assay": "as §1, with “Z-002” for “Z-028”, “rabbit” for “mouse”, “ERS12561802” for “ERS12561827”", "conditions": "2 µM"}, "[14]": {"conditions": "human gut metagenome, 24 h, 2 µM", "remark": "listed apart in the source"}, "[15]": {"assay": "as §1, with “Z-014” for “Z-028”, “rat” for “mouse”, “ERS12561814” for “ERS12561827”", "conditions": "2 µM"}, "[16]": {"assay": "as §1, with “Z-001” for “Z-028”, “ERS12561801” for “ERS12561827”", "conditions": "2 µM"}, "[17]": {"assay": "as §1, with “Z-004” for “Z-028”, “to” for “to mouse gut”, “ERS12561804” for “ERS12561827”", "conditions": "2 µM"}, "[18]": {"conditions": "human gut metagenome, 24 h, 2 µM", "remark": "listed apart in the source"}, "[19]": {"assay": "as §1, with “Z-030” for “Z-028”, “ERS12561829” for “ERS12561827”", "conditions": "2 µM"}, "[20]": {"assay": "as §1, with “Z-008” for “Z-028”, “to” for “to mouse gut”, “ERS12561808” for “ERS12561827”", "conditions": "2 µM"}, "[21]": {"assay": "as §1, with “Z-018” for “Z-028”, “pig” for “mouse”, “ERS12561817” for “ERS12561827”", "conditions": "2 µM"}, "[22]": {"assay": "as §1, with “Z-021” for “Z-028”, “to” for “to mouse gut”, “ERS12561820” for “ERS12561827”", "conditions": "2 µM"}, "[23]": {"assay": "as §1, with “Z-006” for “Z-028”, “ERS12561806” for “ERS12561827”", "conditions": "2 µM"}, "[24]": {"assay": "as §1, with “Z-011” for “Z-028”, “ERS12561811” for “ERS12561827”", "conditions": "2 µM"}, "[25]": {"assay": "as §1, with “Z-017” for “Z-028”, “ERS12561816” for “ERS12561827”", "conditions": "2 µM"}, "[26]": {"assay": "as §1, with “Z-009” for “Z-028”, “pig” for “mouse”, “ERS12561809” for “ERS12561827”", "conditions": "2 µM"}, "[27]": {"assay": "as §1, with “Z-007” for “Z-028”, “rat” for “mouse”, “ERS12561807” for “ERS12561827”", "conditions": "2 µM"}, "[28]": {"assay": "as §1, with “Z-010” for “Z-028”, “to” for “to mouse gut”, “ERS12561810” for “ERS12561827”", "conditions": "2 µM"}, "[29]": {"assay": "as §1, with “Z-023” for “Z-028”, “to” for “to mouse gut”, “ERS12561822” for “ERS12561827”", "conditions": "2 µM"}, "[30]": {"assay": "as §1, with “Z-013” for “Z-028”, “rabbit” for “mouse”, “ERS12561813” for “ERS12561827”", "conditions": "2 µM"}, "[31]": {"assay": "as §1, with “Z-027” for “Z-028”, “to” for “to mouse gut”, “ERS12561826” for “ERS12561827”", "conditions": "2 µM"}, "[32]": {"conditions": "human gut metagenome, 24 h, 2 µM", "remark": "listed apart in the source"}, "[33]": {"assay": "as §1, with “Z-012” for “Z-028”, “to” for “to mouse gut”, “ERS12561812” for “ERS12561827”", "conditions": "2 µM"}, "[34]": {"assay": "as §1, with “Z-016” for “Z-028”, “ERS12561815” for “ERS12561827”", "conditions": "2 µM"}, "[35]": {"assay": "as §1, with “Z-029” for “Z-028”, “rat” for “mouse”, “ERS12561828” for “ERS12561827”", "conditions": "2 µM"}, "[36]": {"assay": "as §1, with “WLS-220” for “Z-028”, “human” for “mouse”, “ERS12561769” for “ERS12561827”", "conditions": "2 µM"}}}
{"smiles": "CCN(CC)C(=O)/C(C#N)=C/c1cc(O)c(O)c([N+](=O)[O-])c1", "note": "[ENTACAPONE]", "values": [{"measurement": "Bacterial Biotransformation", "setting": "[1]", "value": "Compound metabolized"}, {"measurement": "Bacterial Biotransformation", "setting": "[2]", "value": "Compound NOT metabolized"}, {"measurement": "Bacterial Biotransformation", "setting": "[3]", "value": "Compound metabolized"}, {"measurement": "Bacterial Biotransformation", "setting": "[4]", "value": "Compound metabolized"}, {"measurement": "Bacterial Biotransformation", "setting": "[5]", "value": "Compound metabolized"}, {"measurement": "Bacterial Biotransformation", "setting": "[6]", "value": "Compound metabolized"}, {"measurement": "Bacterial Biotransformation", "setting": "[7]", "value": "Compound NOT metabolized"}, {"measurement": "Bacterial Biotransformation", "setting": "[8]", "value": "Compound metabolized"}, {"measurement": "Bacterial Biotransformation", "setting": "[9]", "value": "Compound metabolized"}, {"measurement": "Bacterial Biotransformation", "setting": "[10]", "value": "Compound metabolized"}, {"measurement": "Bacterial Biotransformation", "setting": "[11]", "value": "Compound metabolized"}, {"measurement": "Bacterial Biotransformation", "setting": "[12]", "value": "Compound metabolized"}, {"measurement": "Bacterial Biotransformation", "setting": "[13]", "value": "Compound metabolized"}, {"measurement": "Bacterial Biotransformation", "setting": "[14]", "value": "Compound metabolized"}, {"measurement": "Bacterial Biotransformation", "setting": "[15]", "value": "Compound metabolized"}, {"measurement": "Bacterial Biotransformation", "setting": "[16]", "value": "Compound metabolized"}, {"measurement": "Bacterial Biotransformation", "setting": "[17]", "value": "Compound metabolized"}, {"measurement": "Bacterial Biotransformation", "setting": "[18]", "value": "Compound metabolized"}, {"measurement": "Bacterial Biotransformation", "setting": "[19]", "value": "Compound metabolized"}, {"measurement": "Bacterial Biotransformation", "setting": "[20]", "value": "Compound metabolized"}, {"measurement": "Bacterial Biotransformation", "setting": "[21]", "value": "Compound metabolized"}, {"measurement": "Bacterial Biotransformation", "setting": "[22]", "value": "Compound metabolized"}, {"measurement": "Bacterial Biotransformation", "setting": "[23]", "value": "Compound metabolized"}, {"measurement": "Bacterial Biotransformation", "setting": "[24]", "value": "Compound metabolized"}, {"measurement": "Bacterial Biotransformation", "setting": "[25]", "value": "Compound metabolized"}, {"measurement": "Bacterial Biotransformation", "setting": "[26]", "value": "Compound metabolized"}, {"measurement": "Bacterial Biotransformation", "setting": "[27]", "value": "Compound metabolized"}, {"measurement": "Bacterial Biotransformation", "setting": "[28]", "value": "Compound metabolized"}, {"measurement": "Bacterial Biotransformation", "setting": "[29]", "value": "Compound metabolized"}, {"measurement": "Bacterial Biotransformation", "setting": "[30]", "value": "Compound metabolized"}, {"measurement": "Bacterial Biotransformation", "setting": "[31]", "value": "Compound metabolized"}, {"measurement": "Bacterial Biotransformation", "setting": "[32]", "value": "Compound metabolized"}, {"measurement": "Bacterial Biotransformation", "setting": "[33]", "value": "Compound metabolized"}, {"measurement": "Bacterial Biotransformation", "setting": "[34]", "value": "Compound metabolized"}, {"measurement": "Bacterial Biotransformation", "setting": "[35]", "value": "Compound metabolized"}, {"measurement": "Bacterial Biotransformation", "setting": "[36]", "value": "Compound NOT metabolized"}]}
